Data: US10370642B2, “Hematopoietic progenitor cell populations having affinity for E-selectin / L-selectin” (priority 2000, dated 2019)

Columns and labels:
Format in all cases: cell-based, human
KG1a cells [1] = experiment: L-selectin ligand activity of treated KG1a cells, parallel-plate flow chamber; conditions: thoracic duct lymphocytes, shear stress 4.4 dynes/cm^2
Experimental: Leukocyte tethering and rolling on human HC monolayers was visualized by video microscopy in real time using the parallel-plate flow chamber prepared in the following manner. Prior to experimentation, leukocytes were washed twice in HBSS and then suspended at 10^7/ml in HBSS/10 mM HEPES/2mMCaCl2 (H/H/Ca^++). […] To prepare human HC monolayers (100% confluent), suspensions of HCs (KG 1a, HL60, RPMI 8402, K562) at 2×10^6/ml RPMI-1640 without Na+Bicarbonate/2% FBS were seeded in 6-well plates at 5×10^6/well, centrifuged to layer cells then fixed in 3% glutaraldehyde. Reactive aldehyde groups were blocked in 0.2M lysine, and plated cells were suspended H/H/Ca^++. To assess the dependence of binding by sialic acid residues on L-selectin ligands, cells were pretreated with Vibrio cholerae neuraminidase (0.1 U/mlH/H/Ca^++ for lhr at 37° C.). To examine the contribution of sialomucins (including PSGL-1) and PSGL-1 alone, OSGE (60 μg/ml H/H/Ca^++ for lhr at 37° C.) or mocarhagin (10 μg/ml for 20 min at 37° C.) treatments were performed, respectively. […] The number of leukocytes rolling in one frame of five independent fields under 200× magnification at shear stress of 0.2, 0.4, 0.8, 2.2, 4.4, 8.8, 17.6 and 26.4 dynes/cm^2 were quantified. A minimum of 3 experiments was performed over the entire range of shear stress and results were expressed as the mean±standard deviation.

KG1a cells [2] = experiment: CHO-E cell rolling on glutaraldehyde-fixed KG1a monolayers; conditions: 2.8 dynes/cm^2; EDTA 5 mM; HECA 452 50 μg/ml
Excerpt: (§1) E-selectin-mediated adhesive interactions, under defined shear stress, were examined between hematopoietic cell monolayers and suspensions of CHO-E (Chinese hamster ovary cells stably transfected with full-length cDNA encoding human E-selectin) in flow. CHO-E and empty vector constructs (CHO-Mock) were maintained in MEM 10% FBS/1% Penicillin/Streptomycin (Life Technologies, Inc.) and HAM's F-12 (Cellgro, Inc.)/5% FCS/1% Penicillin/Streptomycin, respectively. CHO-E cell tethering and rolling on hematopoietic cell monolayers was visualized by video microscopy in real time using the parallel-plate flow chamber. […] To prepare hematopoietic cell monolayers>90% confluent, suspensions of cells (KG1a, HL60, K562, or RPMI 8402) at 2×10^6/ml RPMI1640 without NaBicarbonate/2% FBS were cytocentrifuged in […] plates at 5×10^6/well and then fixed in 3% glutaraldehyde. Reactive aldehyde groups were blocked in 0.2M lysine, and plated cells were suspended H/H/Ca++. […] The number of CHO-E/Mock cell rolling on each monolayer was measured in one frame of five independent fields under 10× magnification from multiple experiments. A minimum of 3 experiments was performed and results were expressed as the mean±standard deviation.

HL60 cells = experiment: CHO-E cell rolling on glutaraldehyde-fixed HL60 monolayers; conditions: 2.8 dynes/cm^2; EDTA 5 mM; HECA 452 50 μg/ml
Excerpt: as §1

## neuraminidase: Vibrio cholerae neuraminidase, cleaves terminal sialic acids
KG1a cells [1]
  % Control Mean Lymphocyte Binding: 0.3 % Control
KG1a cells [2]
  CHO-E cell rolling / E-selectin ligand activity of KG1a cells: completely inhibited
HL60 cells
  CHO-E cell rolling / E-selectin ligand activity of HL60 cells: completely inhibited
